Results reported in patent US11324750B2, “Compositions and methods for the treatment of severe acute respiratory syndrome coronavirus 2 (SARS-CoV-2) infection” (Children's Hospital Medical Center, priority 2020, dated 2022).

Test system: severe COVID-19 patients
Assay: Randomized controlled trial, safety: adverse events up to day 28
Type: in vivo, human
Settings: for ALT increase, % patients / ALT increase, n patients / AST increase, % patients / AST increase, n patients / Acute heart failure, n patients / Alkaline phosphatase increase, % patients / Alkaline phosphatase increase, n patients / Anemia, % patients / Anemia, n patients / Chemical laboratory abnormalities, % patients / Chemical laboratory abnormalities, n patients / Decreased appetite, % patients / Decreased appetite, n patients / Dizziness, % patients / Dizziness, n patients / Headache, % patients / Headache, n patients / Hematological adverse events, % patients / Hematological adverse events, n patients / Hypercholesterolemia, % patients / Hypercholesterolemia, n patients / Hypertension, % patients / Hypertension, n patients / Hypertriglyceridemia, n patients / Hypoalbuminemia, % patients / Hypoalbuminemia, n patients / Hypocalcemia, % patients / Hypocalcemia, n patients / Hypochloremia, % patients / Hypochloremia, n patients / Hypokalemia, % patients / Hypokalemia, n patients / Lymphocytopenia, % patients / Lymphocytopenia, n patients / Nausea, % patients / Nausea, n patients / Neutrocytopenia, % patients / Neutrocytopenia, n patients / Rash, % patients / Rash, n patients / Secondary Infection, n patients / Sepsis, n patients / Serious adverse events, n patients / Shock, n patients / Thrombocytopenia, % patients / Thrombocytopenia, n patients / γ-GT increase, % patients / γ-GT increase, n patients / Adverse events, % patients / Adverse events, n patients: N = 20, through day 28; for Adverse events, % patients / Adverse events, n patients: line above headache, dizziness, rash, nausea, decreased appetite, hypertension
Excerpt: As of the effective date of this application, no therapeutics have yet been proven effective for the treatment of severe COVID-19 with cytokine storm. Ruxolitinib, a potent and selective oral inhibitor of Janus kinase (JAK) 1 and JAK2, was proposed by Applicant to be beneficial in the treatment of cytokine storm. Applicant conducted a prospective, multicenter, single-blind, randomized controlled trial involving participants diagnosed as severe COVID-19 patients. The enrolled patients were randomly separated into two groups with a 1:1 allocation by an independent statistician in blocks of 4 for all 3 sites. Study number and treatment allocation codes were provided in sequentially numbered opaque envelops. Intervention group is treated with ongoing oral intake 5 mg of ruxolitinib (Jakafi®, Novartis Pharma Stein AG, Switzerland) twice a day based on the standard-of-care (SoC); the control group is treated with placebo plus SoC. The primary endpoint was the incidence of serious adverse events occurring up to 28 days and the time to clinical improvement. The secondary endpoint is the overall mortality at D28. This trial is registered at www.chictr.org.cn as ChiCTR-OPN-2000029580.
Procedures. The first day of randomization was designated as D0. The second and the fourth day after randomization were designated D1 and D3, respectively. Dx referred to the day when either disease progressed according to the Chinese management guideline for COVID-19 (version 5.0) or defined as a one-category increase on the seven-category scale. Dend was the day before discharge. The enrolled patients were randomly separated into two groups: the treatment group (group B) received oral intake of ruxolitinib (Jakafi®, Novartis Pharma Stein AG, Switzerland) 5 mg twice a day plus standard-of-care (SoC); the control group (group A) is treated with placebo twice a day with SoC. The SoC included supplemental oxygen, noninvasive and invasive ventilation, corticosteroid, antibiotic agents, vasopressor support, renal-replacement therapy, and extracorporeal membrane oxygenation (ECMO) etc. Safety was monitored daily by two independent senior physicians from the trial center. Adverse events were classified according to the National Cancer Institute Common Terminology Criteria for Adverse Events, version 5.0. Non-contrast enhanced chest CT examinations were performed on D0 and followed-up at least once within two weeks. Additional chest CT may be performed if the condition deteriorated. All CT images were reviewed using Picture archiving and communication system (PACS). The CT features of improvement were evaluated by two independent senior radiologists blindly, which should at least meet one of the following criteria: decreased presence of ground-glass opacities (GGO), decreased lung opacification, reduced density of consolidation or decreased pleural effusion with existence of fibrous stripes^29. Peripheral blood was taken from patients on D1, D3, Dx and/or Dend for the determination of viral load by one-step RT-ddPCR, SARS-CoV-2-specific IgM and IgG by paramagnetic particle chemiluminescent immunoassay (CLIA) and cytokines measurements by Luminex FlEXMAP 3D system. Every participant's data is filled in one case record form (CRF). All the CRF tables were inputted and saved by researchers into an electronic data capture system (EDCS) and validated by a trial staff, including demographics, medical history, daily clinical findings, oximetric measurements and laboratory data involving complete blood count, serum biochemical parameters and high sensitivity C-reactive protein (hsCRP) etc.
Outcomes. The primary safety endpoint was the incidence of serious adverse events occurring up to 28 days. Safety outcomes included adverse events that occurred during treatment, serious adverse events and premature discontinuation of treatment. […]

[1] = Grade 3-4, listed as ruxolitinib

Compound: N#CC[C@H](C1CCCC1)n1cc(-c2ncnc3[nH]ccc23)cn1 [Ruxolitinib, (3R)-3-cyclopentyl-3-[4-(7H-pyrrolo[2,3-d]pyrimidin-4-yl)pyrazol-1-yl]propanenitrile]
- ALT increase, % patients (Any Grade): (35.0%)
- ALT increase, n patients (Any Grade): 7
- AST increase, % patients (Any Grade): (15.0%)
- AST increase, n patients (Any Grade): 3
- Acute heart failure, n patients (Any Grade): 0
- Alkaline phosphatase increase, % patients (Any Grade): (10.0%)
- Alkaline phosphatase increase, n patients (Any Grade): 2
- Anemia, % patients (Any Grade): (55.0%)
- Anemia, n patients (Any Grade): 11
- Chemical laboratory abnormalities, % patients (Any Grade): (50.0%)
- Chemical laboratory abnormalities, n patients (Any Grade): 10
- Decreased appetite, % patients (Any Grade): (5.0%)
- Decreased appetite, n patients (Any Grade): 1
- Dizziness, % patients (Any Grade): (10.0%)
- Dizziness, n patients (Any Grade): 2
- Headache, % patients (Any Grade): (5.0%)
- Headache, n patients (Any Grade): 1
- Hematological adverse events, % patients (Any Grade): (65.0%)
- Hematological adverse events, n patients (Any Grade): 13
- Hypercholesterolemia, % patients (Any Grade): (20.0%)
- Hypercholesterolemia, n patients (Any Grade): 4
- Hypertension, % patients (Any Grade): (5.0%)
- Hypertension, n patients (Any Grade): 1
- Hypertriglyceridemia, n patients (Any Grade): 0
- Hypoalbuminemia, % patients (Any Grade): (5.0%)
- Hypoalbuminemia, n patients (Any Grade): 1
- Hypocalcemia, % patients (Any Grade): (5.0%)
- Hypocalcemia, n patients (Any Grade): 1
- Hypochloremia, % patients (Any Grade): (5.0%)
- Hypochloremia, n patients (Any Grade): 1
- Hypokalemia, % patients (Any Grade): (5.0%)
- Hypokalemia, n patients (Any Grade): 1
- Lymphocytopenia, % patients (Any Grade): (5.0%)
- Lymphocytopenia, n patients (Any Grade): 1
- Nausea, % patients (Any Grade): (10.0%)
- Nausea, n patients (Any Grade): 2
- Neutrocytopenia, % patients (Any Grade): (5.0%)
- Neutrocytopenia, n patients (Any Grade): 1
- Rash, % patients (Any Grade): (10.0%)
- Rash, n patients (Any Grade): 2
- Secondary Infection, n patients (Any Grade): 0
- Sepsis, n patients (Any Grade): 0
- Serious adverse events, n patients (Any Grade): 0
- Shock, n patients (Any Grade): 0
- Thrombocytopenia, % patients (Any Grade): (20.0%)
- Thrombocytopenia, n patients (Any Grade): 4
- γ-GT increase, % patients (Any Grade): (10.0%)
- γ-GT increase, n patients (Any Grade): 2
- Adverse events, % patients (Any Grade): (35.0%)
- Adverse events, n patients (Any Grade): 7
- ALT increase, % patients (Grade 1-2): (35.0%)
- ALT increase, n patients (Grade 1-2): 7
- AST increase, % patients (Grade 1-2): (15.0%)
- AST increase, n patients (Grade 1-2): 3
- Acute heart failure, n patients (Grade 1-2): 0
- Alkaline phosphatase increase, % patients (Grade 1-2): (10.0%)
- Alkaline phosphatase increase, n patients (Grade 1-2): 2
- Anemia, % patients (Grade 1-2): (55.0%)
- Anemia, n patients (Grade 1-2): 11
- Chemical laboratory abnormalities, % patients (Grade 1-2): (50.0%)
- Chemical laboratory abnormalities, n patients (Grade 1-2): 10
- Decreased appetite, % patients (Grade 1-2): (5.0%)
- Decreased appetite, n patients (Grade 1-2): 1
- Dizziness, % patients (Grade 1-2): (10.0%)
- Dizziness, n patients (Grade 1-2): 2
- Headache, % patients (Grade 1-2): (5.0%)
- Headache, n patients (Grade 1-2): 1
- Hematological adverse events, % patients (Grade 1-2): (60.0%)
- Hematological adverse events, n patients (Grade 1-2): 12
- Hypercholesterolemia, % patients (Grade 1-2): (20.0%)
- Hypercholesterolemia, n patients (Grade 1-2): 4
- Hypertension, n patients (Grade 1-2): 0
- Hypertriglyceridemia, n patients (Grade 1-2): 0
- Hypoalbuminemia, % patients (Grade 1-2): (5.0%)
- Hypoalbuminemia, n patients (Grade 1-2): 1
- Hypocalcemia, % patients (Grade 1-2): (5.0%)
- Hypocalcemia, n patients (Grade 1-2): 1
- Hypochloremia, % patients (Grade 1-2): (5.0%)
- Hypochloremia, n patients (Grade 1-2): 1
- Hypokalemia, % patients (Grade 1-2): (5.0%)
- Hypokalemia, n patients (Grade 1-2): 1
- Lymphocytopenia, % patients (Grade 1-2): (5.0%)
- Lymphocytopenia, n patients (Grade 1-2): 1
- Nausea, % patients (Grade 1-2): (10.0%)
- Nausea, n patients (Grade 1-2): 2
- Neutrocytopenia, % patients (Grade 1-2): (5.0%)
- Neutrocytopenia, n patients (Grade 1-2): 1
- Rash, % patients (Grade 1-2): (10.0%)
- Rash, n patients (Grade 1-2): 2
- Secondary Infection, n patients (Grade 1-2): 0
- Sepsis, n patients (Grade 1-2): 0
- Serious adverse events, n patients (Grade 1-2): 0
- Shock, n patients (Grade 1-2): 0
- Thrombocytopenia, % patients (Grade 1-2): (20.0%)
- Thrombocytopenia, n patients (Grade 1-2): 4
- γ-GT increase, % patients (Grade 1-2): (10.0%)
- γ-GT increase, n patients (Grade 1-2): 2
- Adverse events, % patients (Grade 1-2): (35.0%)
- Adverse events, n patients (Grade 1-2): 7
- ALT increase, n patients (Grade 3-4): 0
- AST increase, n patients (Grade 3-4): 0
- Acute heart failure, n patients (Grade 3-4): 0
- Alkaline phosphatase increase, n patients (Grade 3-4): 0
- Anemia, n patients (Grade 3-4): 0
- Chemical laboratory abnormalities, n patients (Grade 3-4): 0
- Decreased appetite, n patients (Grade 3-4): 0
- Dizziness, n patients (Grade 3-4): 0
- Headache, n patients (Grade 3-4): 0
- Hematological adverse events, % patients (Grade 3-4): 5.0%
- Hematological adverse events, n patients (Grade 3-4): 1
- Hypercholesterolemia, n patients (Grade 3-4): 0
- Hypertension, % patients (Grade 3-4): 5.0%
- Hypertension, n patients (Grade 3-4): 1
- Hypertriglyceridemia, n patients (Grade 3-4): 0
- Hypoalbuminemia, n patients (Grade 3-4): 0
- Hypocalcemia, n patients (Grade 3-4): 0
- Hypochloremia, n patients (Grade 3-4): 0
- Hypokalemia, n patients (Grade 3-4): 0
- Lymphocytopenia, % patients (Grade 3-4): 5.0%
- Lymphocytopenia, n patients (Grade 3-4): 1
- Nausea, n patients (Grade 3-4): 0
- Neutrocytopenia, n patients (Grade 3-4): 0
- Rash, n patients (Grade 3-4): 0
- Secondary Infection, n patients (Grade 3-4): 0
- Sepsis, n patients (Grade 3-4): 0
- Serious adverse events, n patients (Grade 3-4): 0
- Shock, n patients (Grade 3-4): 0
- Thrombocytopenia, n patients (Grade 3-4): 0
- γ-GT increase, n patients (Grade 3-4): 0
- Hematological adverse events, n patients [1]: 2
- Hypertension, n patients [1]: One
- Adverse events, n patients (Grade 3-4): 0
- Adverse events at grade 3-4, number of events (all ruxolitinib recipients, lymphocytopenia and hypertension, transient and reversible): two
- Patients who reported adverse events, % (from randomization to D28, primary safety endpoint): 80%
- Unexpected adverse events (primary safety endpoint): No significant unexpected adverse events
- Tolerability (ruxolitinib with SoC treatment): well tolerated
